Data taken from ChEMBL document CHEMBL4028815, “Novel phosphonate analogs of sulforaphane: Synthesis, in vitro and in vivo anticancer activity” (Eur J Med Chem, 2017).
Active and inactive are the calls of the source. No cut-off for these calls is given here.

Columns and labels:
LoVo [1] = assay: Induction of apoptosis in human LoVo cells assessed as necrotic cells at 15 uM after 24 hrs by APC-Annexin-V/propidium iodide staining based flow cytometric method (reference value: 10%); assay type: functional
Mus musculus [2] = assay: Toxicity in BALB/c mdb mouse implanted with mouse 4T1 cells assessed as serum urea level at 100 umol/kg, ip administered five times weekly measured at 29 day post cell innoculum (reference value: 3.8 +/- […]); assay type: organism-based; conditions: in vivo, 696 h
[3] = Resistance index, ratio of IC50 for human LoVo/DX cells to IC50 for human LoVo cells; assay type: functional
MES-SA/Dx5 = assay: Cytotoxicity against human MESSA/DX5 cells after 72 hrs by sulforhodamine B assay; assay type: functional, cell-based; conditions: MES-SA/Dx5, 72 h
Mus musculus [4] = assay: Toxicity in BALB/c mdb mouse implanted with mouse 4T1 cells assessed as RBC level at 100 umol/kg, ip administered five times weekly measured at 29 day post cell innoculum (reference value: 8.6 +/- 0.9 10^6/uL); assay type: organism-based; conditions: in vivo, 696 h
LoVo [5] = assay: Induction of apoptosis in human LoVo cells assessed as increase in caspase3/7 activity at 15 uM using Ac-DEVD-ACC as substrate pretreated for 24 hrs followed by substrate addition measured for 2 hrs by fluorescence assay relative to control; assay type: functional
LoVo [6] = assay: Potency index, ratio of benzyl isothiocyanate IC50 to compound IC50 for human LoVo cells; assay type: functional
Mus musculus [7] = assay: Nephrotoxicity in BALB/c mdb mouse implanted with mouse 4T1 cells assessed as kidney weight at 100 umol/kg, ip administered five times weekly measured at 29 day post cell innoculum (reference value: 0.136 +/- 0.006 g); assay type: toxicity, organism-based; conditions: in vivo, 696 h
4T1 [8] = assay: Cytotoxicity against mouse 4T1 cells after 72 hrs by sulforhodamine B assay; assay type: functional, cell-based; conditions: 4T1, 72 h
A549 = assay: Cytotoxicity against human A549 cells after 72 hrs by sulforhodamine B assay; assay type: functional, cell-based; conditions: A549, 72 h
Mus musculus [9] = assay: Toxicity in BALB/c mdb mouse implanted with mouse 4T1 cells assessed as serum creatinine level at 100 umol/kg, ip administered five times weekly measured at 29 day post cell innoculum (reference value: 9.3 +/- 1.2 umol/L); assay type: organism-based; conditions: in vivo, 696 h
HL-60 = assay: Cytotoxicity against human HL60 cells after 72 hrs by sulforhodamine B assay; assay type: functional, cell-based; conditions: HL-60, 72 h
LoVo [10] = assay: Induction of apoptosis in human LoVo cells assessed as increase in caspase3/7 activity at >15 uM using Ac-DEVD-ACC as substrate pretreated for 24 hrs followed by substrate addition measured for 2 hrs by fluorescence assay; assay type: functional, cell-based
4T1 [11] = assay: Anti-tumor activity against mouse 4T1 cells implanted in BALB/c mdb mouse assessed as tumor growth inhibition at 100 umol/kg, ip administered five times weekly measured on day 29 post cell innoculum relative to control; assay type: functional; conditions: 4T1, ip, 696 h, read-out: TGI
Mus musculus [12] = assay: Toxicity in BALB/c mdb mouse implanted with mouse 4T1 cells assessed as serum ALT level at 100 umol/kg, ip administered five times weekly measured at 29 day post cell innoculum (reference value: 23.8 +/- 2.2 U/L); assay type: organism-based; conditions: in vivo, 696 h
Mus musculus [13] = assay: Toxicity in BALB/c mdb mouse implanted with mouse 4T1 cells assessed as lung weight at 100 umol/kg, ip administered five times weekly measured at 29 day post cell innoculum (reference value: 0.2 +/- 0.018 g); assay type: organism-based; conditions: in vivo, 696 h
Mus musculus [14] = assay: Hepatotoxicity in BALB/c mdb mouse implanted with mouse 4T1 cells assessed as liver weight at 100 umol/kg, ip administered five times weekly measured at 29 day post cell innoculum (reference value: 1.2 +/- 0.13 g); assay type: toxicity, organism-based; conditions: in vivo, 696 h
[15] = Induction of apoptosis in human LoVo/DX cells assessed as late apoptotic cells at 15 uM after 24 hrs by APC-Annexin-V/propidium iodide staining based flow cytometric method relative to control; assay type: functional
LoVo [16] = assay: Induction of apoptosis in human LoVo cells assessed as loss of mitochondrial membrane potential at 15 uM after 24 hrs by JC-1 staining based flow cytometric method relative to control; assay type: functional
Mus musculus [17] = assay: Toxicity in BALB/c mdb mouse implanted with mouse 4T1 cells assessed as hemoglobin level at 100 umol/kg, ip administered five times weekly measured at 29 day post cell innoculum (reference value: 15.1 +/- 1.5 g/dl); assay type: organism-based; conditions: in vivo, 696 h
[18] = Induction of apoptosis in human LoVo/DX cells assessed as increase in caspase3/7 activity at 15 uM using Ac-DEVD-ACC as substrate pretreated for 24 hrs followed by substrate addition measured for 2 hrs by fluorescence assay relative to control; assay type: functional
LoVo/DX [19] = assay: Cell cycle arrest in human LoVo/DX cells assessed as decrease in accumulation at G0/G1 phase at 15 uM after 24 hrs by propidium iodide staining based flow cytometric method; assay type: functional
LoVo [20] = assay: Induction of apoptosis in human LoVo cells assessed as late apoptotic cells at 15 uM after 24 hrs by APC-Annexin-V/propidium iodide staining based flow cytometric method relative to control; assay type: functional
LoVo/DX [21] = assay: Cell cycle arrest in human LoVo/DX cells assessed as accumulation at G2/M phase at 15 uM after 24 hrs by propidium iodide staining based flow cytometric method; assay type: functional
MES-SA = assay: Cytotoxicity against human MESSA cells after 72 hrs by sulforhodamine B assay; assay type: functional, cell-based
HL60/MX2 = assay: Cytotoxicity against human HL60/MX2 cells after 72 hrs by sulforhodamine B assay; assay type: functional, cell-based; conditions: HL60/MX2, 72 h
BALB/3T3 = assay: Cytotoxicity against mouse BALB/3T3 cells after 72 hrs by sulforhodamine B assay; assay type: cell-based; conditions: BALB/3T3, 72 h
LoVo/DX [22] = assay: Induction of apoptosis in human LoVo/DX cells assessed as increase in caspase3/7 activity at >15 uM using Ac-DEVD-ACC as substrate pretreated for 24 hrs followed by substrate addition measured for 2 hrs by fluorescence assay; assay type: functional, cell-based
LoVo [23] = assay: Cell cycle arrest in human LoVo cells assessed as accumulation at G2/M phase at 15 uM after 24 hrs by propidium iodide staining based flow cytometric method; assay type: functional
Mus musculus [24] = assay: Toxicity in BALB/c mdb mouse implanted with mouse 4T1 cells assessed as serum AST level at 100 umol/kg, ip administered five times weekly measured at 29 day post cell innoculum (reference value: 136 +/- 10.3 U/L); assay type: organism-based; conditions: in vivo, 696 h
4T1 [25] = assay: Anti-tumor activity against mouse 4T1 cells implanted in BALB/c mdb mouse assessed as lung metastasis at 100 umol/kg, ip administered five times weekly measured at 29 days post cell innoculum (reference value: 56 +/- 25); assay type: functional
[26] = Resistance index, ratio of IC50 for human HL60/MX2 cells to IC50 for human HL60 cells; assay type: functional
LoVo [27] = assay: Cytotoxicity against human LoVo cells assessed as cell death at >15 uM after 24 hrs; assay type: cell-based
4T1 [28] = assay: Anti-tumor activity against mouse 4T1 cells implanted in BALB/c mdb mouse assessed as tumor growth inhibition at 100 umol/kg, ip administered five times weekly measured on day 15 post cell innoculum relative to control; assay type: functional; conditions: 4T1, ip, 360 h, read-out: TGI
Mus musculus [29] = assay: Toxicity in BALB/c mdb mouse implanted with mouse 4T1 cells assessed as hematocrit at 100 umol/kg, ip administered five times weekly measured at 29 day post cell innoculum (reference value: 39.9 +/- 3.7 %); assay type: organism-based; conditions: in vivo, 696 h

Structure (SMILES): O=P(CCCCCCN=C=S)(Oc1ccccc1)Oc1ccccc1
- Activity (LoVo [1]): 23.3%
- Activity (Mus musculus [2]): 4.9 mmol/L
- Ratio IC50 [3]: 4
- IC50 (MES-SA/Dx5): 8.3 µM
- Activity (Mus musculus [4]): 11.6 ×10⁶ /uL
- fold change (FC) (LoVo [5]): 6.8
- Ratio IC50 (LoVo [6]): 5
- Activity (Mus musculus [7]): 0.143 g
- IC50 (4T1 [8]): 2.9 µM
- IC50 (A549): 11.1 µM
- Activity (Mus musculus [9]): 8.4 µmol/L
- IC50 (HL-60): 0.8 µM
- Activity (LoVo [10]): inactive
- inhibition in vivo at 100 µmol/kg (4T1 [11]): -6.4%
- Activity (Mus musculus [12]): 33.3 U/L
- Activity (Mus musculus [13]): 0.294 g
- Activity (Mus musculus [14]): 1.32 g
- Activity [15]: 59.7%
- Activity (LoVo [16]): 79.3%
- Activity (Mus musculus [17]): 20.8 g/dL
- fold change (FC) [18]: 6.8
- Activity (LoVo/DX [19]): Active
- Activity (LoVo [20]): 54.6%
- Activity (LoVo/DX [21]): Active
- IC50 (MES-SA): 10.6 µM
- IC50 (HL60/MX2): 3.3 µM
- IC50 (BALB/3T3): 11.5 µM
- Activity (LoVo/DX [22]): inactive
- Activity (LoVo [23]): Active
- Activity (Mus musculus [24]): 153 U/L
- Activity (4T1 [25]): 46
- Ratio IC50 [26]: 4.3
- Activity (LoVo [27]): Toxic
- inhibition in vivo at 100 µmol/kg (4T1 [28]): 23.1%
- Activity (Mus musculus [29]): 57.6%
